We go through five compounds from patent US5026715A, “2-guanidino-4-arylthiazoles for treatment of peptic ulcers” (Pfizer Inc., priority 1989, dated 1991).

Assay [1] has as its target T1, H^+ / K^+ ATPase isolated from canine gastric mucosa (Canis lupus familiaris, UniProt P50996).
T1 construct: ATPase isolated from canine gastric mucosa; from tissue; host or cells: canine gastric mucosa
In words: Inhibition of H+/K+ ATPase isolated from canine gastric mucosa. The class given is biochemical. The following applies: preincubated 45 minutes at 37° C., pH 7.5, drugs preferably acid activated in 1:1 dimethylsulfoxide:0.02N HCl, 30 minutes, read-out: IC50 (the concentration which inhibits the enzyme to the extent of 50%). As for the experimental part:
The utility of the present compounds as antiulcer agents is reflected in vitro by their inhibition of H^+ / K^+ ATPase isolated from canine gastric mucosa. The enzyme activity was assayed according to Beil et al., Brit. J. Pharmacol. 82, 651-657 (1984) with slight modifications. The enzyme (1-2 micrograms) was preincubated at 37° C. for 45 minutes with a medium containing 2×10^-3 M MgCl2, 0.05M Tris-Cl buffer (pH 7.5) with or without 0.01M KCl, and the acid activated test drug in a final volume of 0.590 ml. The reaction was started by the addition of […] of ATP (final concentration 3×10^-3 M). The reaction was terminated by adding trichloroacetic acid to a concentration of 4.2%. Liberated inorganic phosphate was determined using Fiske and Subbarow Reducer available commercially (e.g., from Sigma Chemical Co., P.O. Box 14508, St. Louis, Mo. 63178, U.S.A.). In this test the drugs are preferably first acid activated by incubating in 1:1 dimethylsulfoxide:0.02N HCl at 37° C. for 30 minutes.

Assay [2] has as its system ethanol-induced gastric ulceration in rats. In words: Inhibition of ethanol-induced gastric ulceration in rats (cytoprotective activity). The assay is classed as in vivo, rat. The following applies: dose of 30 mg/kg. The text has this: The in vivo utility of the present compounds as antiulcer agents is also particularly shown by their cytoprotective activity.

The structures appear in SMILES notation. Structures can show the parent of a compound that is named as a salt.

T1 sequence (P50996 2-1034 limits assumed): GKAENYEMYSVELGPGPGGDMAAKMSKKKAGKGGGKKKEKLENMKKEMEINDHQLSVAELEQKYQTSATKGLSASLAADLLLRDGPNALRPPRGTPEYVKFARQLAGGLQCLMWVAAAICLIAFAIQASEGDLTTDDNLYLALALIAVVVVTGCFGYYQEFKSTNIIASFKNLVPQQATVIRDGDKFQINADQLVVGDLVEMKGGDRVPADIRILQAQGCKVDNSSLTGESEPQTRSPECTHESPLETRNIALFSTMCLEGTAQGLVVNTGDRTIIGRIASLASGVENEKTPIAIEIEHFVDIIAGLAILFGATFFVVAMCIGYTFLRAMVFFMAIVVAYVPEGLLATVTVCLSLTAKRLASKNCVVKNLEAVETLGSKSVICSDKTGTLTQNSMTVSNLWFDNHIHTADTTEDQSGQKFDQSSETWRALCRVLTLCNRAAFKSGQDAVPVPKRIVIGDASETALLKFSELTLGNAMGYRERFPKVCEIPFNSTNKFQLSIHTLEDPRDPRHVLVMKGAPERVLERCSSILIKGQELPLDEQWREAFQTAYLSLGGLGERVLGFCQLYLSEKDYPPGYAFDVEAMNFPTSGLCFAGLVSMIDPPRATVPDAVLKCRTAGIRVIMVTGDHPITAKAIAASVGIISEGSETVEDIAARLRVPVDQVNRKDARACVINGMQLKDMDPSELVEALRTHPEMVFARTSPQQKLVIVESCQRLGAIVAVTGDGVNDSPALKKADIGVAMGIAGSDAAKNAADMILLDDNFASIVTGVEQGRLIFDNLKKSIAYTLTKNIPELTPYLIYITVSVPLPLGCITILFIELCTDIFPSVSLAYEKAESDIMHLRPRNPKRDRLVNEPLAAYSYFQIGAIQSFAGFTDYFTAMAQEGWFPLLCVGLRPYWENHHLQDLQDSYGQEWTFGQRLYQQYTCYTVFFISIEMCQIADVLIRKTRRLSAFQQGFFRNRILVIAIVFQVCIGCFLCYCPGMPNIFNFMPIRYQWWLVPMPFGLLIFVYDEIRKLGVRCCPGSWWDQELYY
T1 sequence (P33704 whole entry partner): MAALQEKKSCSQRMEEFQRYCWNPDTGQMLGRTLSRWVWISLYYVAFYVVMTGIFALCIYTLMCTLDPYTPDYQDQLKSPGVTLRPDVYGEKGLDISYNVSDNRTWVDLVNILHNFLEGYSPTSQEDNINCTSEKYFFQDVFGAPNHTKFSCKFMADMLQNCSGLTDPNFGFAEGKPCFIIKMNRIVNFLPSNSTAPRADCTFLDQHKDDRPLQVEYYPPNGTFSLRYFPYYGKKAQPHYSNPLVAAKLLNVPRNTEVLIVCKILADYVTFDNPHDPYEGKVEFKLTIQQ

Take `Cc1cc(-c2csc(NC(=N)N)n2)c[nH]1` [2-guanidino-4-(2-methylpyrrol-4-yl)thiazole]: the IC50 in assay [1] was 15 µM. Besides, the “inhibition of ethanol-induced gastric ulceration” value in assay [2] is 100%.
Regarding `COc1cccc(-c2csc(NC(=N)NCc3ccccc3)n2)c1` [4-(3-methoxyphenyl)-2-(N-benzylguanidino)thiazole], the IC50 in assay [1] was 10 µM.
Same read-out and setting: to `N=C(NCc1ccccc1)Nc1nc(-c2c[nH]c3ccc(Cl)cc23)cs1` [4-(5-chloro-1H-indol-3-yl)-2-(N-benzylguanidino)thiazole] belongs 0.6 µM; to `N=C(NCc1ccccc1)Nc1nc(-c2c[nH]c3ccccc23)cs1` [4-(1H-Indol-3-yl)-2-(N-benzyl-N"-guanidino)thiazole Hydrochloride], 2 µM.
As for `NC(=Nc1nc(-c2ccc[nH]2)cs1)NCc1ccccc1` [2-(N-benzylguanidino)-4-(pyrrol-2-yl)thiazole], the “inhibition of ethanol-induced gastric ulceration” value in assay [2] is 99%.
